Experimental data as given in ChEMBL document CHEMBL4184157, “Phenoxypropanolamine derivatives as selective inhibitors of the 20S proteasome β1 and β5 subunits” (Bioorg Med Chem Lett, 2017).
Active and inactive are the calls of the source. The rule behind the calls is not given here.

Legend:
Oryctolagus cuniculus [1] = species: Oryctolagus cuniculus; experiment: Inhibition of caspase-like activity of rabbit erythrocyte 20S proteasome beta1 subunit at 100 uM using Z-LLE-betaNA as substrate preincubated for 15 mins followed by substrate addition measured after 45 mins by fluorescence assay
Oryctolagus cuniculus [2] = species: Oryctolagus cuniculus; experiment: Inhibition of trypsin-like activity of rabbit erythrocyte 20S proteasome beta2 subunit at 100 uM using BocLRR-AMC as substrate preincubated for 5 mins followed by substrate addition measured after 45 mins by fluorescence assay
[3] = Inhibition of chymotrypsin-like activity of rabbit erythrocyte 20S proteasome beta5 subunit using Suc-LLVY-AMC as substrate preincubated for 15 mins followed by substrate addition measured after 45 mins by fluorescence assay; design: species or system Oryctolagus cuniculus
[4] = Inhibition of caspase-like activity of rabbit erythrocyte 20S proteasome beta1 subunit using Z-LLE-betaNA as substrate preincubated for 15 mins followed by substrate addition measured after 45 mins by fluorescence assay; design: species or system Oryctolagus cuniculus
Oryctolagus cuniculus [5] = species: Oryctolagus cuniculus; experiment: Inhibition of chymotrypsin-like activity of rabbit erythrocyte 20S proteasome beta5 subunit at 100 uM using Suc-LLVY-AMC as substrate preincubated for 15 mins followed by substrate addition measured after 45 mins by fluorescence assay
Rattus norvegicus [6] = experiment: In vivo antiproliferative activity against Wistar rat bone marrow cells from femora assessed as inhibition of cell division measured by counting metaphase plates administered at 2 mg per rat, ip by light microscopic method; design: scale not given: the % may be the effect or the level left
[7] = molecular target: Cathepsin B (Homo sapiens) (UniProt P07858); experiment: Inhibition of human hepatocyte cathepsin B protease using Z-RR-AMC as substrate by fluorescence assay
Rattus norvegicus [8] = experiment: In vivo antiproliferative activity against ip dosed Wistar rat bone marrow cells from femora assessed as inhibition of cell division measured by counting metaphase plates by light microscopic method; type: functional, organism-based
HeLa [9] = experiment: Antiproliferative activity against human HeLa cells at 10 uM after 72 hrs by microscopic method; type: functional, cell-based
[10] = molecular target: T1, Calpain-1 catalytic subunit (Homo sapiens) (UniProt P07384); experiment: Inhibition of human erythrocyte calpain 1 protease using Suc-LLVY-AMC as substrate by fluorescence assay
T1 sequence (whole entry): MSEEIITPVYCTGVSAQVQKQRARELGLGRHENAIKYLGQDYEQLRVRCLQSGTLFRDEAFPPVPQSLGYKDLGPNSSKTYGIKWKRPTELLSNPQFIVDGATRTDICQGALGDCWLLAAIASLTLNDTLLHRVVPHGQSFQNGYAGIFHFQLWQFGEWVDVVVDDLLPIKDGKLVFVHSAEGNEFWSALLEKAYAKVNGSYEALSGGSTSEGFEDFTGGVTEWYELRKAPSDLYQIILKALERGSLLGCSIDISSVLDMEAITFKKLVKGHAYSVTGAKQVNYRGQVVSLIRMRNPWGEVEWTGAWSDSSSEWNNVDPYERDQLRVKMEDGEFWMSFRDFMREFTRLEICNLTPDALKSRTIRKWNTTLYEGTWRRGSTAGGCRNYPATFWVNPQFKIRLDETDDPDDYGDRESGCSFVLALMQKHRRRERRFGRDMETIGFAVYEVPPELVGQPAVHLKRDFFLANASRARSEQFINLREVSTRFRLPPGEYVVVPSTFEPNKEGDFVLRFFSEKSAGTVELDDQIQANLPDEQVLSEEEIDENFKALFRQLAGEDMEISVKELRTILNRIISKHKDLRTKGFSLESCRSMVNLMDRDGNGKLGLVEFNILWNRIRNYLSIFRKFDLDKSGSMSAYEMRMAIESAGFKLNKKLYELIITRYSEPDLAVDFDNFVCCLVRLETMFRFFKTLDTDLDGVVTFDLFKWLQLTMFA

HeLa [11] = experiment: Antiproliferative activity against human HeLa cells assessed as fragmented nuclei at 50 uM after 72 hrs by microscopic method; type: functional, cell-based
HeLa [12] = experiment: Cytotoxicity against human HeLa cells at 10 uM after 72 hrs by XTT assay; type: functional, cell-based
Rattus norvegicus [13] = experiment: In vivo antiproliferative activity against Wistar rat bone marrow cells from femora assessed as inhibition of cell division measured by counting metaphase plates administered at 0.2 mg per rat, ip by light microscopic method; design: scale not given: the % may be the effect or the level left
HeLa [14] = experiment: Antiproliferative activity against human HeLa cells after 72 hrs by XTT assay; type: functional, cell-based

| inhibition (Oryctolagus cuniculus [1]) | inhibition (Oryctolagus cuniculus [2]) | IC50 [3] [µM] | IC50 [4] [µM] | Compound | also measured |
| --- | --- | --- | --- | --- | --- |
| inactive | 49% | 80 |  | Cc1ccc(OCC(O)CNCC2(c3cccs3)CCOCC2)cc1 (stereo not drawn) |  |
|  | 38% | 15.4 | 24.2 | Cc1ccc(OCC(O)CNCC2(c3cccs3)CCCC2)cc1 (stereo not drawn) |  |
|  | 48% | 37.2 | 36 | COc1ccccc1OCC(O)CNCC1(c2cccs2)CCCC1 (stereo not drawn) |  |
|  |  | 3 |  | O=C(O)CSc1cc(NS(=O)(=O)c2cccs2)c2ccccc2c1O |  |
| inactive | inactive |  |  | NCC1(c2cccs2)CCCC1 | inhibition (Oryctolagus cuniculus [5]): 26% |
|  | inactive | 18 | 12.8 | OC(CNCC1(c2cccs2)CCCCC1)COc1ccc(Cl)cc1 (stereo not drawn) |  |
|  | 40% | 17.1 | 22 | COc1ccccc1OCC(O)CNCC1(c2cccs2)CCCCC1 (stereo not drawn) |  |
|  | 42% | 15.8 | 18 | OC(CNCC1(c2cccs2)CCCC1)COc1ccc(Cl)cc1 (stereo not drawn) | Activity (Rattus norvegicus [6]): 75%; inhibition [7]: inactive; Activity (Rattus norvegicus [8]): Dose-dependent effect; Activity (HeLa [9]): inactive; inhibition [10]: inactive; Activity (HeLa [11]): Active; Activity (HeLa [12]): inactive; Activity (Rattus norvegicus [13]): 50%; Activity (HeLa [14]): Dose-dependent effect |
|  | inactive | 14.9 | 18.1 | OC(CNCC1(c2cccs2)CCCCC1)COc1ccccc1 (stereo not drawn) |  |
| inactive | inactive |  |  | NCC1(c2cccs2)CCOCC1 | inhibition (Oryctolagus cuniculus [5]): inactive |
|  | 41% | 19.3 | 66.5 | OC(CNCC1(c2cccs2)CCCC1)COc1ccccc1 (stereo not drawn) | inhibition [7]: inactive; inhibition [10]: inactive |
| inactive | inactive |  |  | COc1ccccc1OCC(O)CNCC1(c2cccs2)CCOCC1 (stereo not drawn) | inhibition (Oryctolagus cuniculus [5]): inactive |
| inactive | 53% | 40 |  | OC(CNCC1(c2cccs2)CCOCC1)COc1ccc(Cl)cc1 (stereo not drawn) |  |
| 36% | 39% |  |  | OC(CNCC1(c2cccs2)CCOCC1)COc1ccccc1 (stereo not drawn) | inhibition (Oryctolagus cuniculus [5]): 31% |
|  | 36% | 15.5 | 30 | Cc1ccc(OCC(O)CNCC2(c3cccs3)CCCCC2)cc1 (stereo not drawn) |  |
|  |  |  | 48 | CC1(C)OC(=O)c2c1ccn(CCc1ccccc1)c2=O |  |

| Compound | inhibition (Oryctolagus cuniculus [1]) | inhibition (Oryctolagus cuniculus [2]) | IC50 [3] [µM] | IC50 [4] [µM] | also measured |
| --- | --- | --- | --- | --- | --- |
| NCC1(c2cccs2)CCCCC1 | inactive | inactive |  |  | inhibition (Oryctolagus cuniculus [5]): inactive |
